Like-named read-outs stand apart in the source and are kept apart here. Some results are limits rather than exact numbers.

One data set deals with wheat. The conditions noted are these: cited from earlier work.
For data set [1], the system named is durum wheat (Triticum durum; TRZDU). The data set can be described thus: 2018 field trials, Alberta, Saskatchewan and Manitoba: growth inhibition, head deformity and yield loss on durum wheat. The format is in vivo. The conditions noted are these: herbicide 700 gae/ha; for % Growth Inhibition (66 DAT) TRZDU / % Head Deformity (66 DAT) TRZDU / % Yield Loss (77 DAT) TRZDU: Field Trial 1; for % Yield Loss (77 DAT) TRZDU: relative to commercial standard REXADE A at 20 gae/ha; for % Growth Inhibition (7 DAT) TRZDU: Field Trial 2; for % Growth Inhibition (14 DAT) TRZDU: Field Trial 3. How it is done: (§1) Growth inhibition was evaluated at 7, 14, and 66 days after treatment (DAT), head deformity was evaluated at 66 days after treatment (DAT), and yield was taken at 77 days after treatment (DAT). All treatments are illustrated in Table 3.
Weed-free tolerance trials were established.

Data set [2] has the same test system. To be noted: in vivo. The procedure:
(§2) Two weed-free tolerance field trials were conducted in Alberta and Manitoba, Canada in 2017 to evaluate whether wheat injury caused by 2,4-D ester could be reduced by tank-mixing with cloquintocet-containing products. […] The rate of cloquintocet parent acid delivered by the tank-mix partners ranged from 3.5 to 63.7 gae/ha. All herbicide treatments were applied post-emergence in the spring (Jun. 16, 2017 to Jun. 26, 2017). Herbicides were applied with tractor- or bicycle-mounted sprayers using CO2 as a propellant. The sprayer delivered a uniform spray pattern that provided thorough coverage of the foliage using a 100 L/ha spray volume. Applications were made to spring wheat (Triticum aestivum) and durum wheat (Triticum durum) at the three-leaf stage. Phytotoxicity to wheat was visually assessed as percent overall injury, compared to an untreated control plot. The overall injury assessments were based on visual ratings of growth inhibition, leaf deformity, epinasty, chlorosis, and delay in maturity. […] Head deformity was evaluated at 10 to 12 weeks after treatment (WAT). The trial was designed as a randomized complete block with four replicates.

Data set [3] relates to spring wheat (Triticum aestivum; TRZAS). The conditions noted are these: in vivo. How it is done: as §2
The test system is the same in data set [4]. The data set can be described thus: 2016 field trial, Alberta: weed-free tolerance trial, visual phytotoxicity (head deformity) on spring wheat. How it is done: (§3) One field trial was conducted in Alberta, Canada in 2016 to evaluate whether wheat injury caused by 2,4-D could be reduced by tank-mixing with a herbicide that is preformulated with cloquintocet acid. 2,4-D was applied as either an ester (660 gae/L 2,4-D EHE) or choline salt (456 gae/L 2,4-D choline) at a rate of 700 gae/ha. […] Some treatments were applied with Intake adjuvant at 1% v/v. Intake is a blend of a non-ionic surfactant and a paraffinic oil and is used to improve the spreading and wetting of herbicides. Herbicide treatments were made to spring wheat (Triticum aestivum) and durum wheat (Triticum durum) at the B12-B13 stage. Head deformity was evaluated at 42, 55 and 71 days after treatment (DAT).
(§4) This trial was established a weed-free tolerance trial. All herbicide treatments were applied post-emergence in the spring (e.g., Jun. 2, 2016). Herbicides were applied with a tractor-mounted sprayer using CO2 as a propellant. The sprayer delivered a uniform spray pattern that provided thorough coverage of the foliage using a 100 L/ha spray volume. Applications were made to spring wheat and durum wheat at the 2-3 leaf stage. Phytotoxicity to wheat was visually assessed as percent overall injury, compared to an untreated control plot. The overall injury assessments were based on visual ratings of growth inhibition, leaf deformity, epinasty, chlorosis, and delay in maturity. The primary injury observed with 2,4-D was head deformity, and therefore those are the only evaluations summarized below. The trial was designed as a randomized complete block with four replicates. Referring now to Table 1, 2,4-D ester (e.g., 2,4-D EHE) and 2,4-D choline at a rate of 700 gae/ha caused head deformity to spring wheat peaking at 8% and to durum wheat peaking at 4%. […] The results provide that cloquintocet (or herbicides containing cloquintocet) could be mixed with 2,4-D ester or choline to reduce head deformity in spring wheat caused by early applications of 2,4-D.

Data set [5] deals with durum wheat (Triticum durum; TRZDU). The data set can be described thus: 2016 field trial, Alberta: weed-free tolerance trial, visual phytotoxicity (head deformity) on durum wheat. The procedure: as §3, §4
For data set [6], the system named is spring wheat (Triticum aestivum; TRZAS). The data set can be described thus: 2018 field trials, Alberta, Saskatchewan and Manitoba: growth inhibition, head deformity and yield loss on spring wheat. Format: in vivo. To be noted: for % Growth Inhibition (66 DAT) TRZAS / % Head Deformity (66 DAT) TRZAS / % Yield Loss (77 DAT) TRZAS: Field Trial 1; for % Growth Inhibition (66 DAT) TRZAS / % Head Deformity (66 DAT) TRZAS / % Yield Loss (77 DAT) TRZAS / % Growth Inhibition (7 DAT) TRZAS / % Growth Inhibition (14 DAT) TRZAS: herbicide 700 gae/ha; for % Yield Loss (77 DAT) TRZAS: relative to commercial standard REXADE A at 20 gae/ha; for % Growth Inhibition (7 DAT) TRZAS: Field Trial 2; for % Growth Inhibition (14 DAT) TRZAS: Field Trial 3. The procedure: as §1
Weed-free tolerance trials were established. […] The primary injury observed with 2,4-D was growth inhibition, head deformity, and yield loss, therefore those are the only evaluations summarized below.

Setting [7] is: 42 DAT, herbicide 700 gae/ha, safener 0, Intake @1% v/v.
[8] abbreviates: 55 DAT, herbicide 700 gae/ha, safener 0, Intake @1% v/v.
[9] abbreviates: 71 DAT, herbicide 700 gae/ha, safener 0, Intake @1% v/v.

Take 2,4-D amine: the results for the wheat yield reduction in the data set with wheat (applied at Stage 13) and with wheat (applied at Stage 44) were 35% and 15%, respectively.
For the compound `CCCCC(CC)COC(=O)COc1ccc(Cl)cc1Cl` (stereo not drawn) [2,4-D Ester, 2-ethylhexyl 2-(2,4-dichlorophenoxy)acetate], the “% Growth Inhibition (66 DAT) TRZDU” value was determined as 1.9% in data set [1] (safener 0, Agral 90 @ […]) and 2.6% in data set [1] (safener 0, no adjuvant). For the same compound, the “% Head Deformity (66 DAT) TRZDU” value in data set [1] (safener 0, Agral 90 @ […]) was 5.3%; in data set [1] (safener 0, no adjuvant), 5%. For the same compound, the “% Yield Loss (77 DAT) TRZDU” value stood at 8.8% in data set [1] (safener 0, Agral 90 @ […]) and 6.1% in data set [1] (safener 0, no adjuvant). The “% Growth Inhibition (7 DAT) TRZDU” value in data set [1] (safener 0, Agral 90 @ […]) came out at 8.5%; in data set [1] (safener 0, no adjuvant), 5.5%. Besides, the “% Growth Inhibition (14 DAT) TRZDU” value stood at 8.5% in data set [1] (safener 0, Agral 90 @ […]) and 7% in data set [1] (safener 0, no adjuvant). Also, the wheat yield reduction is 39% with wheat (applied at Stage 13) and 16% in the data set on wheat (applied at Stage 44). Besides, the “head deformity to durum wheat, peak” value in data set [2] is given as at most 4%; in data set [5] (Triticum durum (durum wheat), in vivo), at most 4%. Besides, the “% TRZDU Head Deformity” value in data set [2] (12 weeks) is recorded as 0.0%; in data set [5] (Triticum durum (durum wheat), in vivo, 42 days) it was 0.0%; in data set [5] (Triticum durum (durum wheat), in vivo, 55 days), 4.3%; in data set [5] (Triticum durum (durum wheat), in vivo, 71 days), 3.0%. Also, the “head deformity to spring wheat, peak” value in data set [3] is reported as at most 10%; in data set [4] (Triticum aestivum (spring wheat), in vivo) it was at most 8%. Moreover, the “% TRZAS Head Deformity” value was found to be 6.5% in data set [4] (Triticum aestivum (spring wheat), in vivo, 42 days); 7.5% in data set [4] (Triticum aestivum (spring wheat), in vivo, 55 days); 7.8% in data set [4] (Triticum aestivum (spring wheat), in vivo, 71 days). The “injury” value in data set [6] (2018 trials, applied alone or with Agral 90, spring and durum wheat) is “caused growth inhibition, head deformity and yield loss”. In addition, the “% Growth Inhibition (66 DAT) TRZAS” value was found to be 9.1% in data set [6] (safener 0, Agral 90 @ […]) and 10.1% in data set [6] (safener 0, no adjuvant). In addition, the “% Head Deformity (66 DAT) TRZAS” value came to 40% in data set [6] (safener 0, Agral 90 @ […]) and 40% in data set [6] (safener 0, no adjuvant). The “% Yield Loss (77 DAT) TRZAS” value is 3.3% in data set [6] (safener 0, Agral 90 @ […]) and 4.5% in data set [6] (safener 0, no adjuvant). Further, the “% Growth Inhibition (7 DAT) TRZAS” value in data set [6] (safener 0, Agral 90 @ […]) was determined as 8%; in data set [6] (safener 0, no adjuvant), 4.5%. Besides, the “% Growth Inhibition (14 DAT) TRZAS” value in data set [6] (safener 0, Agral 90 @ […]) was 7.5%; in data set [6] (safener 0, no adjuvant), 7%.
`O=C(O)COc1ccc(Cl)cc1Cl` [2,4-D Choline, 2-hydroxy-N,N,N-trimethylethanaminium 2-(2,4-dichlorophenoxy)acetate]: the “% TRZAS Head Deformity” value in data set [4] (setting [7]) is 5.8%; in data set [4] (setting [8]), 5.8%; in data set [4] (setting [9]), 3.0%. Moreover, the “% TRZDU Head Deformity” value in data set [5] (setting [7]) came out at 0.0%; in data set [5] (setting [8]) it was 3.5%; in data set [5] (setting [9]), 0.8%.

The values above are taken from patent publication US20210400971A1, “SAFENING COMPOSITIONS COMPRISING A PHENOXY HERBICIDE AND CLOQUINTOCET FOR CEREAL CROPS AND METHODS THEREOF” (DOW AGROSCIENCES LLC, priority 2018, published 2021).
